This is an account of results in patent US5599789A, “Method for the treatment of tumours and sarcomas” (Amrad Corporation Limited, priority 1991, dated 1997).

Holding throughout (format): cell-based, human
For assay [1], the system named is Ewing's Sarcoma cell line Al (uncloned). Put plainly: Colony formation in semi-solid agar cultures, Al (uncloned) cells. Particulars: Al(uncloned), 5,000 cells, day 18. The protocol:
(§1) Tumour cells obtained from biopsy and bone marrow specimens from patients with Ewing's Sarcoma were used in these studies. Approval for this project has been obtained from the Ethics Committee of the Royal Children's Hospital.
(§2) Single cell suspensions of tumour cells were obtained by mechanical disruption with an 18G or 21G needle or by pipetting, followed by incubation with dispase II (Boehringer) at a concentration of 1.2 units per ml for 10 minutes at 37° C. Prior to the addition to agar-medium the cells were vortexed gently to prevent clumping.
(§3) Clonal cell lines were grown in Iscove's Modified Dulbecco's Medium (IMDM) supplemented with 10% v/v foetal calf serum (FCS; CSL Limited, Melbourne, Australia) and were passaged either weekly or twice weekly. The characteristics of the Ewing Sarcoma cell lines used herein as described below:
(§4) The tumour cells were immobilised in 0.3% w/v agar containing Iscove's Modified Dulbecco's Medium (IMDM) and 10% v/v FCS. […] Cultures were scored for the presence of colonies (>40 cells) or clusters (<40 cells). The number of cells plated per culture ranged from 500 to 10,000 per ml. Colonies were counted on an Olympus dissecting microscope.
(§5) IL-1, IL-3, IL-4, IL-6, M-CSF, G-CSF, GM-CSF, Stem Cell Factor (SCF), TNFα, TGFα, TGFβ, EGF, aFGF, bFGF, NGF, IGF I, IGF II, PDGF and IFN-γ.
(§6) The recombinant human leukaemia inhibitory factor (LIF) was obtained from AMRAD Corporation Limited, Melbourne, Australia.

Assay [2] concerns Ewing's Sarcoma cell line Al-5. Put plainly: Colony formation in semi-solid agar cultures, Al-5 cells. Conditions: Al-5, 1,000 cells, day 18. The protocol: as §1, §2, §3
(§7) Cell lines derived from the above primary cell lines (Al and Cu) are identified by an Arabic numeral (e.g. Al-1, Al-5, Al-8 or Cu-1).
as §4, §5, §6

The subject of assay [3] is Ewing's Sarcoma cell line Al-8. Put plainly: Colony formation in semi-solid agar cultures, Al-8 cells. Particulars: Al-8, 1,000 cells, day 18. The protocol:
as §1, §2, §3, §7, §4, §5, §6

The test system of assay [4] is Ewing's Sarcoma cell line Al-1. Put plainly: Colony formation in semi-solid agar cultures, Al-1 cells. Conditions: day 18. The protocol:
as §1, §2, §3, §7, §4, §5, §6

Assay [5] has as its system Ewing's Sarcoma cell line Cu-1. The experiment in a line: Colony formation in semi-solid agar cultures, Cu-1 cells. Particulars: Cu-1, 10,000 cells, day 18. The protocol: as §1, §2, §3, §7, §4, §5, §6
Assay [6] has as its system Ewing's Sarcoma cells. The experiment in a line: Colony formation in agar cultures, a number of different Ewing's cell lines (summary statements). Particulars: doses of Tables 1-3; TNF-α dose far above the physiological dose.
Source text: as §4

Setting [7] is: stimulus 100 ng, mean of duplicate colony counts.
[8] abbreviates: Al-1, 1,000 cells, stimulus 100 ng, mean of duplicate colony counts.
Setting [9] is: Al-1, 10,000 cells, stimulus 100 ng, mean of duplicate colony counts.

For “IL-4: commercially available growth factor, used at 1:3000”, the Colonies/Cultures was determined as 165 in assay [1] (stimulus 1:3000); 38 in assay [2] (stimulus 1:3000); 82 in assay [3] (stimulus 1:3000); 47 in assay [4] (Al-1, 1,000 cells, stimulus 1:3000); 720 in assay [4] (Al-1, 10,000 cells, stimulus 1:3000); 325 in assay [5] (stimulus 1:3000).
In the case of “NGF: commercially available growth factor”, the Colonies/Cultures amounted to 165 in assay [1] (setting [7]); 32 in assay [2] (setting [7]); 52 in assay [3] (setting [7]); 49 in assay [4] (setting [8]); 810 in assay [4] (setting [9]); 360 in assay [5] (setting [7]).
Regarding PDGF, the Colonies/Cultures in assay [1] (stimulus 30 ng) amounted to 352; in assay [2] (stimulus 30 ng), 39; in assay [3] (stimulus 30 ng), 72; in assay [4] (Al-1, 1,000 cells, stimulus 30 ng) it was 47; in assay [5] (stimulus 30 ng), 390.
For the substance “SCF: commercially available growth factor, Stem Cell Factor”, the Colonies/Cultures in assay [1] (setting [7]) was found to be 225; in assay [2] (setting [7]), 42; in assay [3] (setting [7]) it was 77; in assay [4] (setting [8]), 51; in assay [4] (setting [9]), 950; in assay [5] (setting [7]) it was 440.
For the substance “TGFa: commercially available growth factor”, the Colonies/Cultures in assay [1] (stimulus 20 ng) is listed as 190; in assay [3] (stimulus 20 ng) it was 87; in assay [5] (stimulus 20 ng), 390.
Regarding TGFb, the Colonies/Cultures in assay [1] (stimulus 5 ng) is on record as 175; in assay [2] (stimulus 5 ng), 41; in assay [3] (stimulus 5 ng) it was 45; in assay [4] (Al-1, 10,000 cells, stimulus 5 ng), 540; in assay [5] (stimulus 5 ng), 385.
Turning to TNFa, the Colonies/Cultures in assay [1] (stimulus 5 ug) stood at 39; in assay [2] (stimulus 5 ug) it was 0; in assay [3] (stimulus 5 ug) it was 1; in assay [4] (Al-1, 10,000 cells, stimulus 5 ug), 2; in assay [5] (stimulus 5 ug), 190. Moreover, the “Effect on colony counts of the other factors” value in assay [6] was “with the exception of TNF-α showed any effect on colony counts”.
Regarding “aFGF: commercially available growth factor”, the Colonies/Cultures in assay [1] (setting [7]) stood at 260; in assay [2] (setting [7]) it was 58; in assay [3] (setting [7]) it was 128; in assay [4] (setting [8]), 57; in assay [4] (setting [9]), 975; in assay [5] (setting [7]), 520.
